Values quoted from earlier work in patent US20240016743A1, “A METHOD FOR PRODUCING ENTACAPONE TABLETS” (CHINA MEHECO KANGLI PHARMA CO., LTD, priority 2021, published 2024).

Conditions: clinical trials

SMILES: N[C@@H](Cc1ccc(O)c(O)c1)C(=O)O [levodopa]
- prolong the "On" time: 16%
- shorten the "Off" time: 24%
